Source: publication PMC9682078, “Structural changes and molecular mechanism study on the inhibitory activity of epigallocatechin against α-glucosidase and α-amylase” (Frontiers in Nutrition, 2022)

Target: T1, α-amylase (Sus scrofa, UniProt P00690)
T1 construct: gene AMY2
T1 sequence (P00690 16-511): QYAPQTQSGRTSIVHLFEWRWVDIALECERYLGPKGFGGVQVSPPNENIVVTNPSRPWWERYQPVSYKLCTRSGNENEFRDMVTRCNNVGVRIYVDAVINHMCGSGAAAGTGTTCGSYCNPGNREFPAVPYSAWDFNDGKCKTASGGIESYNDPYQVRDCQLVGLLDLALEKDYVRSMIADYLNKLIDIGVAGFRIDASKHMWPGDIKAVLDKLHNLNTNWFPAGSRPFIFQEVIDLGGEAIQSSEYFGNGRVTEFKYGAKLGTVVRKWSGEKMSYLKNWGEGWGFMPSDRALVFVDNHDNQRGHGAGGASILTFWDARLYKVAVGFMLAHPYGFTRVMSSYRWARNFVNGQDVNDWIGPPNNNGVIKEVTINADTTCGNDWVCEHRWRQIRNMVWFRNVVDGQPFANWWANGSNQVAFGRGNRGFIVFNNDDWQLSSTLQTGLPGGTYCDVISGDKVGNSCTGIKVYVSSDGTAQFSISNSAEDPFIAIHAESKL
Assay: colorimetric DNS starch hydrolysis assay; Lineweaver-Burk kinetics; intrinsic fluorescence quenching
Format: biochemical

IC50: 4.44 mM
Structure (SMILES): Oc1cc(O)c2c(c1)O[C@H](c1cc(O)c(O)c(O)c1)[C@H](O)C2 [EGC, epigallocatechin]
